Where two headings read alike, the source gives them in different places. Each block holds one molecule with its values, some of them ahead of it.
Assays:
[1] = CADODIAME study, subclinical diabetic macular oedema; assay type: in vivo, human; conditions: 1000 mg twice per day, 1 year; SD 14
[2] = Low dose gliclazide and sitagliptin crossover study, mixed meal test and CGM; assay type: in vivo, human; conditions: 2-hour MMT after 14 days
[3] = 3-year prospective observational study of quadruple oral therapy in T2DM; assay type: in vivo, human; conditions: empagliflozin 25 mg/day, dapagliflozin 10 mg/day
[4] = Swedish registry cohorts, causal random forest, change after 6 months versus SU; assay type: in vivo, human; conditions: after 6 months treatment
[5] = single dose 50 mg
[6] = SUSTAIN 10 post hoc analysis by baseline SGLT-2i; assay type: in vivo, human
[7] = Liraglutide crossover trial, Holter monitoring and echocardiography; assay type: in vivo, human; conditions: 12 weeks
[8] = test system: patients with type 2 diabetes at CV risk; assay: PIONEER 6, treatment discontinuation; parameters: species or system human; conditions: in vivo
[9] = Insulin icodec titration trial, CGM hypoglycaemia duration, insulin-naive T2D; assay type: in vivo, human
[10] = assay type: in vivo, human
[11] = test system: insulin-naive patients with type 2 diabetes; assay: Icodec phase 2 titration trial, CGM post hoc; assay type: in vivo, human; conditions: titration B, weeks 15&16
[12] = test system: human hTERT-immortalized adipose tissue-derived MSCs; assay: PPARG splicing in adipose tissue-derived MSCs treated with recombinant cytokines; assay type: cell-based
[13] = test system: mouse pancreatic beta cells; assay: PKA activation; assay type: cell-based; conditions: only effective from
[14] = test system: Arrb2-/- beta cells; assay: Incretin responses in Arrb2-/- beta cells; assay type: cell-based, mouse
[15] = EXPECT trial, pregnant women with type 1 diabetes; assay type: in vivo, human; conditions: degludec once daily or detemir 1-2 times daily, both with insulin aspart
[16] = test system: C57BL/6J mice; assay: Pparg splicing in epididymal adipose tissue of LPS-injected mice; assay type: in vivo, mouse; conditions: inflamed adipose tissue, n=6

Molecule: O=S(=O)(O)c1cc(O)ccc1O [CaD, Calcium dobesilate]
Mean decrease of retinal thickness [1]: 2.5 μm

Molecule: N[C@@H](CC(=O)N1CCn2c(nnc2C(F)(F)F)C1)Cc1cc(F)c(F)cc1F [DPP4, sitagliptin]
Beta cell glucose sensitivity [2]: 75.9 (55.7 - 96.0) pmol min^-1 m^-2mM^-1

Molecule: CCOc1ccc(Cc2cc([C@@H]3O[C@H](CO)[C@@H](O)[C@H](O)[C@H]3O)ccc2Cl)cc1 [dapagliflozin]
Change in body weight at 3 years [3]: -1.0 ± 3.3 kg
Change in fasting plasma glucose at 3 years [3]: -47.4 ± 61.7 mg/dL
Average treatment effect on change in HbA1c compared to SU [4]: -1.10 [-1.92, -0.27] mmol/mol
Absolute risk reduction for the primary outcome (UACR >3500 mg/g, 95%CI 3.0, 24.5): 13.8%
Absolute risk reduction for the primary outcome (UACR >1000 to ≤3500 mg/g, 95%CI 3.6, 10.1): 6.9%
adverse events [5]: no adverse events

Impairment of diastolic filling (e') [7]: 10%
Molecule: CCCCCCCCCCCCCCCC(=O)N[C@@H](CCC(=O)NCCCC[C@H](NC(=O)[C@H](C)NC(=O)[C@H](C)NC(=O)[C@H](CCC(N)=O)NC(=O)CNC(=O)[C@H](CCC(=O)O)NC(=O)[C@H](CC(C)C)NC(=O)[C@H](Cc1ccc(O)cc1)NC(=O)[C@H](CO)NC(=O)[C@H](CO)NC(=O)[C@@H](NC(=O)[C@H](CC(=O)O)NC(=O)[C@H](CO)NC(=O)[C@@H](NC(=O)[C@H](Cc1ccccc1)NC(=O)[C@@H](NC(=O)CNC(=O)[C@H](CCC(=O)O)NC(=O)[C@H](C)NC(=O)[C@@H](N)Cc1cnc[nH]1)[C@@H](C)O)[C@@H](C)O)C(C)C)C(=O)N[C@@H](CCC(=O)O)C(=O)N[C@@H](Cc1ccccc1)C(=O)N[C@H](C(=O)N[C@@H](C)C(=O)N[C@@H](Cc1c[nH]c2ccccc12)C(=O)N[C@@H](CC(C)C)C(=O)N[C@H](C(=O)N[C@@H](CCCNC(=N)N)C(=O)NCC(=O)N[C@@H](CCCNC(=N)N)C(=O)NCC(=O)O)C(C)C)[C@@H](C)CC)C(=O)O [liraglutide]
Premature treatment discontinuations due to AEs ([6]; with SGLT-2i): 7.2%
Premature treatment discontinuations due to AEs ([6]; without SGLT-2i): 6.4%

Molecule: CC[C@H](C)[C@H](NC(=O)[C@H](Cc1ccccc1)NC(=O)[C@H](CCC(=O)O)NC(=O)[C@H](CCCCNC(=O)COCCOCCNC(=O)COCCOCCNC(=O)CC[C@H](NC(=O)CCCCCCCCCCCCCCCCC(=O)O)C(=O)O)NC(=O)[C@H](C)NC(=O)[C@H](C)NC(=O)[C@H](CCC(N)=O)NC(=O)CNC(=O)[C@H](CCC(=O)O)NC(=O)[C@H](CC(C)C)NC(=O)[C@H](Cc1ccc(O)cc1)NC(=O)[C@H](CO)NC(=O)[C@H](CO)NC(=O)[C@@H](NC(=O)[C@H](CC(=O)O)NC(=O)[C@H](CO)NC(=O)[C@@H](NC(=O)[C@H](Cc1ccccc1)NC(=O)[C@@H](NC(=O)CNC(=O)[C@H](CCC(=O)O)NC(=O)C(C)(C)NC(=O)[C@@H](N)Cc1cnc[nH]1)[C@@H](C)O)[C@@H](C)O)C(C)C)C(=O)N[C@@H](C)C(=O)N[C@@H](Cc1c[nH]c2ccccc12)C(=O)N[C@@H](CC(C)C)C(=O)N[C@H](C(=O)N[C@@H](CCCNC(=N)N)C(=O)NCC(=O)N[C@@H](CCCNC(=N)N)C(=O)NCC(=O)O)C(C)C [oral semaglutide, semaglutide]
patients who stopped at least once due to an AE [8]: 27%

Molecule: Insulin icodec
Overall hypoglycaemic episode duration, median (IQR) ([9]; titration A (4.4-7.2 mmol/L; ±21 U/week), CGM <3.9 mmol/L for at least 15 min): 35.0 (20.0, 70.0) min
Overall hypoglycaemic episode duration, median (IQR) ([9]; titration B (4.4-7.2 mmol/L ±28 U/week)): 35.0 (20.0, 70.0) min
Overall hypoglycaemic episode duration, median (IQR) ([9]; titration C (3.9-6.0 mmol/L ±28 U/week)): 39.0 (24.0, 70.0) min
Overall hypoglycaemic episode duration, median (IQR) ([10]; with 100% loading dose): 40.0 (20.0, 75.0) min
Overall hypoglycaemic episode duration, median (IQR) ([10]; without loading dose): 40.0 (25.0, 80.0) min
patients with >70% TIR and TBR<3.9 mmol/L <4% [11]: 80.0%

Molecule: TNFα
Increase of PpargΔ5/cPparg ratio [12]: 2.5 fold

Molecule: glucose-dependent insulinotropic polypeptide (YAEGTFISDYSIAMDKIHQQDFVNWLLAQKGKKNDWKHNITQ; Gastric inhibitory polypeptide; UniProt P09681 52-93, looked up) [GIP]
Lowest effective concentration on PKA activation and insulin secretion [13]: ≥ 1 nM
Reduction of insulin secretion in Arrb2-/- beta cells [14]: ~ 50%

Molecule: insulin detemir
Estimated mean HbA1c prior to delivery [15]: 6.34%

Molecule: lipopolysaccharides [LPS]
Increase of PpargΔ5/cPparg ratio [16]: 3.5 fold

From publication PMC8408311 (Diabetologia, 2021)
